# Marks after values point to notes of the source that are not given here.
# System: human neutrophils
# Assay: Chemorepulsion (negative chemotaxis) of neutrophils in Neuroprobe ChemoTx plates, migrated cells quantified with Cell Titer Glo
# Type: cell-based
# Details: 0.048, 0.48, 4.8 or 48 uM; FIGS. 1A, 1B and 1C
# Experimental: Prior to beginning the assay, the following were prepared: • a. 0.5% Fetal Calf Serum (FCS) in Iscove's Modified Dulbecco's Medium (IMDM) (Assay Medium) (Both from ATCC). • b. Migratory cells at a concentration of 2×10^7 cells/ml in Assay Medium. • c. Four serial (10-fold) dilutions of the ligand of interest in Assay Medium. All stocks were diluted initially 1:100 into Assay Medium and subsequently made into 10 fold dilutions (100 uM, 10 uM, 1 uM, 0.1 uM). […] The same dilutions were followed. • 2. […] The plates were removed from packaging, leaving the membrane behind. • 4. 31 μl of the following solutions were pipetted into each well: • a. For media controls and for chemorepulsion samples, Assay Medium was used. • b. For chemoattraction samples, appropriate dilution of ligand was used. • 5. A sterile needle was used to pop any and all small bubbles present in each well. • 6. The membrane was carefully placed onto the plate, starting at one side and then slowly lowering the other edge onto the plate. • 7. 29 μl of the following were pipetted onto the top of each circle: • a. For media controls and chemoattraction samples, use Assay Medium. • b. For chemorepulsion samples, use the appropriate dilution of ligand. • 8. 2 μl of cells (40,000 cells) were added to each bubble of liquid from step 7. • 9. A needle was used to pop all air bubbles. • 10. The plate was covered with the supplied lid and incubated for the desired time at 37° C. in 5% CO2. Unless otherwise indicated, the incubation time was 1 hour for neutrophils and 3 hours for T cells. For monocytes and B cells, the incubation time was 2 hours. • 11. After the desired assay time, the liquid was removed from the top of the plate using a Kimwipe. At this point, the plate was stored (with the membrane in place) for up to 2 hours at 4° C. • 12. The membrane was carefully removed from the top of the plate and discard. The plate was examined under a microscope to look for ligand crystallization, contamination and overall migration. • 13. White read plates were preloaded with 25 ul PBS. • 14. Using a multichannel pipettor, 5 ul of Cell Titer Glo (Promega # G7572) was added to each well. • 15. Using a multichannel pipettor set at 30 ul, lysed cell solution was transferred to white read plates pre-loaded with PBS. • 16. The plate was read using the BioTek Synergy4 plate reader in order to quantify the number of migrated cells.
# Compounds from the chemical analog library were screened once in CR mode as described.
row,SMILES,chemorepulsion of neutrophils in response to the compound
1,"COc1ccc2nc([S@@+]([O-])Cc3ncc(C)c(OC)c3C)[nH]c2c1 [esomeprazole, reference compound]",showed chemorepulsion

# Same assay, conditions: neutrophils, four 10-fold dilutions
row,SMILES,dose dependence of the induction of chemotaxis / chemorepulsion
1,"COc1ccc2nc([S@@+]([O-])Cc3ncc(C)c(OC)c3C)[nH]c2c1 [esomeprazole, reference compound]",dose-dependent

# Same assay, conditions: neutrophils, methods of Example 1
row,SMILES,chemorepulsion class mark in Tables 1-4
1,COc1ccc2[nH]c(Sc3ccc(C(F)(F)F)cc3[N+](=O)[O-])nc2c1 [Compound 88],88* (Compounds that showed chemorepulsion that was at least 3-fold greater than media)
2,COc1ccc2[nH]c(SCC(=O)Nc3cc(NC(=O)CSc4nc5cc(OC)ccc5[nH]4)cc(C(=O)O)c3)nc2c1 [Compound 43],43* (Compounds that showed chemorepulsion that was at least 3-fold greater than media)
3,COc1ccc2[nH]c(SCc3cccc(I)c3)nc2c1 [Compound 45],45* (Compounds that showed chemorepulsion that was at least 3-fold greater than media)
4,COc1ccc2[nH]c(SCC(=O)Nc3ccc(Cl)cc3)nc2c1 [Compound 40],40* (Compounds that showed chemorepulsion that was at least 3-fold greater than media)
5,COc1ccc2[nH]c(N3CCCC(C(=O)NCCc4ccc(Cl)cc4)C3)nc2c1 (stereo not shown) [Compound 128],128* (Compounds that showed chemorepulsion that was at least 3-fold greater than media)
6,COc1ccc2[nH]c(SCC(=O)Nc3nc4ccc(OC)cc4s3)nc2c1 [Compound 17],17* (Compounds that showed chemorepulsion that was at least 3-fold greater than media)
7,COc1ccc2[nH]c(SCC(=O)NCc3ccccc3)nc2c1 [Compound 15],15* (Compounds that showed chemorepulsion that was at least 3-fold greater than media)
8,COc1ccc(NC(=O)CSc2nc3cc([N+](=O)[O-])ccc3[nH]2)c(OC)c1 [Compound 33],33* (Compounds that showed chemorepulsion that was at least 3-fold greater than media)
9,COc1ccc2[nH]c(Sc3c(-c4ccccc4)c4cc(Cl)ccc4[nH]c3=O)nc2c1 [Compound 54],54* (Compounds that showed chemorepulsion that was at least 3-fold greater than media)
10,O=C(CSc1nc2cc([N+](=O)[O-])ccc2[nH]1)Nc1ccccc1F [Compound 12],12* (Compounds that showed chemorepulsion that was at least 3-fold greater than media)
11,COc1ccc2[nH]c(SCC(=O)Nc3ccccc3F)nc2c1 [Compound 16],16* (Compounds that showed chemorepulsion that was at least 3-fold greater than media)
12,COc1ccc2[nH]c(SCC(=O)Nc3ccccc3[N+](=O)[O-])nc2c1 [Compound 41],41* (Compounds that showed chemorepulsion that was at least 3-fold greater than media)
13,CSc1nc2cc(Cl)c(Oc3ccc4ccccc4c3Br)cc2[nH]1 [Compound 136],136* (Compounds that showed chemorepulsion that was at least 3-fold greater than media)
14,COc1ccc(C(=O)CSc2nc3cc(OC)ccc3[nH]2)cc1 [Compound 21],21* (Compounds that showed chemorepulsion that was at least 3-fold greater than media)
15,CCOc1ccc2[nH]c(SCC(=O)N(c3ccccc3)C(C)C)nc2c1 [Compound 62],62* (Compounds that showed chemorepulsion that was at least 3-fold greater than media)
16,COc1ccc2[nH]c(SCC(=O)Nc3ccc4c(c3)OCO4)nc2c1 [Compound 36],36* (Compounds that showed chemorepulsion that was at least 3-fold greater than media)
17,CCOc1ccc2[nH]c(SCC(=O)Nc3nccs3)nc2c1 [Compound 60],60* (Compounds that showed chemorepulsion that was at least 3-fold greater than media)

row,SMILES,chemorepulsion class mark in Tables 1-4
1,O=C(CSc1nc2cc([N+](=O)[O-])ccc2[nH]1)Nc1ccc(O)c(C(=O)O)c1 [Compound 59],59* (Compounds that showed chemorepulsion that was at least 3-fold greater than media)
2,O=[N+]([O-])c1ccc2nc(-c3cn4ccsc4n3)sc2c1 [Compound 132],132* (Compounds that showed chemorepulsion that was at least 3-fold greater than media)
3,CCOc1ccc2[nH]c(SCC(=O)Nc3ccccc3)nc2c1 [Compound 63],63* (Compounds that showed chemorepulsion that was at least 3-fold greater than media)
4,COc1ccc2[nH]c(SCC(=O)Nc3ccon3)nc2c1 [Compound 79],79* (Compounds that showed chemorepulsion that was at least 3-fold greater than media)
5,CCOc1ccc2[nH]c(SCC(=O)Nc3ccc(O)c(C(=O)O)c3)nc2c1 [Compound 58],58* (Compounds that showed chemorepulsion that was at least 3-fold greater than media)
6,COc1ccc2[nH]c(SCC(=O)c3ccc4c(c3)OCO4)nc2c1 [Compound 23],23* (Compounds that showed chemorepulsion that was at least 3-fold greater than media)
7,COc1ccc2[nH]c(SCC(=O)Nc3ccc([N+](=O)[O-])cc3)nc2c1 [Compound 42],42* (Compounds that showed chemorepulsion that was at least 3-fold greater than media)
8,COc1ccc2[nH]c(N3CCCC(C(=O)NCCc4ccccc4)C3)nc2c1 (stereo not shown) [Compound 157],157* (Compounds that showed chemorepulsion that was at least 3-fold greater than media)
9,COc1ccc2[nH]c(SCc3ccc(Cl)c(Cl)c3)nc2c1 [Compound 22],22* (Compounds that showed chemorepulsion that was at least 3-fold greater than media)
10,COc1ccc2[nH]c(SCC(=O)Nc3cc(Cl)ccc3OC)nc2c1 [Compound 37],37* (Compounds that showed chemorepulsion that was at least 3-fold greater than media)
11,COc1ccc2[nH]c(SCc3cnc(C)nc3N)nc2c1 [Compound 80],80* (Compounds that showed chemorepulsion that was at least 3-fold greater than media)
12,COc1ccc2[nH]c(SCc3ccc(Cl)cc3)nc2c1 [Compound 11],11* (Compounds that showed chemorepulsion that was at least 3-fold greater than media)
13,COc1ccc2[nH]c(SCC(=O)Nc3ccccc3Br)nc2c1 [Compound 39],39* (Compounds that showed chemorepulsion that was at least 3-fold greater than media)
14,COc1ccc2[nH]c(Sc3c(-c4ccccc4)c4ccc(Cl)cc4[nH]c3=O)nc2c1 [Compound 99],99* (Compounds that showed chemorepulsion that was at least 3-fold greater than media)
15,COc1ccc2[nH]c(SCC(=O)c3cc(C(C)(C)C)c(O)c(C(C)(C)C)c3)nc2c1 [Compound 20],20* (Compounds that showed chemorepulsion that was at least 3-fold greater than media)
16,COc1ccc2[nH]c(SCC(=O)Nc3ccc(Br)cc3)nc2c1 [Compound 38],38* (Compounds that showed chemorepulsion that was at least 3-fold greater than media)

# Same assay, conditions: neutrophils, omeprazole 0.1, 1, 10 and 100 uM, FIG. 2
row,SMILES,chemorepulsion relative to cells treated with media alone
1,"COc1ccc2[nH]c([S+]([O-])Cc3ncc(C)c(OC)c3C)nc2c1 (stereo not shown) [omeprazole, reference compound]",greater than 5 fold

# Same assay, conditions: neutrophils, rabeprazole at 106 uM, FIG. 59
row,SMILES,chemorepulsion over media
1,"COCCCOc1ccnc(C[S+]([O-])c2nc3ccccc3[nH]2)c1C (stereo not shown) [rabeprazole, reference compound]",greater than 3 fold
